Laboratory results: patent US11242337B2, “Compounds useful for treating gastrointestinal tract disorders” (Ardelyx, Inc., priority 2017, dated 2022)
Read-outs that look alike come from different tables or passages of the source.

Tests used:
[1] = test system: absorption of sodium from the intestinal lumen; assay: Inhibition of intestinal sodium absorption in mice; assay type: in vivo; settings: CD-1 mice, 15 mg/kg oral gavage twice daily; for Fecal fluid content (Δ from vehicle): day 3, change from vehicle group mean; for response vs control in vivo at 15 mg/kg: Mus musculus, 72 h, day 3, normalized to dietary sodium intake
Outline: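 Male ~8-week CD-1 mice on chow with added 0.4% inorganic phosphorous, in metabolic cages after 3-day acclimation and 24-hr baseline collection. Urine sodium by ion chromatography, dried fecal sodium by MP-AES; day-3 24-hour excretion normalized to dietary sodium intake and expressed as % of vehicle mean; diarrhea and fecal fluid also recorded.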

[2] = test system: human duodenum monolayer culture; assay: Increased trans-epithelial resistance (TEER) in human organoid monolayer cell cultures; assay type: cell-based; settings: 1 μM apical, baseline corrected
Description: Basal media (B consisted of advanced DMEM/F12 containing 10 mM HEPES (Invitrogen, 15630-080), 1:100 Glutamax (Invitrogen, 35050-061), and 1:100 penicillin/streptomycin (Invitrogen, 15140-122). Supplemented basal media (SBM) contained 1:100 N2 (Invitrogen, 17502-048), 1:50 B27 (Invitrogen, 12587-010), 1 mM N-acetylcysteine (Sigma, A9165), and 10 nM [Leu15]-gastrin I (Sigma, G9145). Growth factors used included 50 ng per mL mouse EGF (Peprotech, 315-09), 100 ng per mL mouse noggin (Peprotech, 250-38), 500 ng per mL human R-spondin 1 (R&D, 4645-RS), 100 ng per mL mouse Wnt-3a (R&D, 1324-WN), 20 μM Y-27632 (Tocris, 1254), 10 mM nicotinamide (Sigma, N0636), 500 nM A83-01 (Tocris, 2939), 10 μM SB202190 (Tocris, 1264). Transwells were 0.4 μm pore polyester membrane 24-well Transwell inserts (Corning). Cultures were incubated at 37° C. in 5% CO2.
Human duodenum organoids were cultured in WENRNAS (Wnt, EGF, noggin, R-spondin1, Nicotinamide, A83-01, SB202190) and typically grown for 7-12 days before being used to plate monolayer cultures. On day 0, organoid cultures embedded in Matrigel were treated with TrypLE Express to break organoids into small pieces and/or single cells. The cells were resuspended to 0.5×10^6 cells/mL in SBM containing WENRAY (Wnt, EGF, noggin, R-spondin1, A83-01, Y-27632). Following this step, 200 μL of cell suspension was plated into the apical side of a 24-well Transwell (100,000 cells/well) and 600 μL of SBM with WENRAY was added to the basolateral side. Duodenum cells were differentiated with ENA (EGF, noggin, A83-01) on day 3. The color of apical compartment turns from pink or orange to yellow due to the increase in NHE3 expression after differentiation.
Each human duodenum monolayer culture well was washed twice with fresh SBM on the apical side on day 6 or day 7 before dosing. All compound stocks were 10 mM dissolved DMSO. Each compound stock was individually mixed with fresh SBM to reach final compound concentration 1 μM and dosed only on the apical side of the monolayer (total volume 200 μl). DMSO at the equivalent concentration was used as the vehicle control. Duplicate wells were dosed for each compound. Transepithelial electrical resistance (TEER) was used as a quantitative technique to measure of tight junction permeability. TEER values were recorded (MERS00002, Millipore) before dosing and 30 mins and 1 hr after dosing for all wells. Each of the duplicate TEER values following treatment were corrected for the individual well baseline TEER. Baseline corrected TEER for each example compound was compared to the average of the DMSO wells and expressed as a percent TEER of vehicle control.

[3] = read-out: Fecal Na Excretion (% of vehicle)
[4] = read-out: Urinary Na Excretion (% of vehicle)
[5] = 1 hr after dosing, read-out: TEER at 60 minutes (% of Vehicle)
[6] = 0.5 h, 30 mins after dosing, read-out: TEER at 30 minutes (% of Vehicle)

Compound | Fecal fluid content (Δ from vehicle) [1] | response vs control in vivo at 15 mg/kg [1, 3] | response vs control in vivo at 15 mg/kg [1, 4] | activity at 1 µM [2, 5] | activity at 1 µM [2, 6]
O=C(NCCCCNC(=O)NCCOCCOCCNS(=O)(=O)c1ccc(O[C@H]2c3cc(Cl)cc(Cl)c3C[C@@H]2N2CCNCC2)cc1)NCCOCCOCCNS(=O)(=O)c1ccc(O[C@H]2c3cc(Cl)cc(Cl)c3C[C@@H]2N2CCNCC2)cc1 [Example 31, 3-[2-(2-[2-[(4-[[(1S,2S)-4,6-Dichloro-2-(piperazin-1-yl)-2,3-dihydro-1H-inden-1-yl]oxy]benzene)sulfonamido]ethoxy]ethoxy)ethyl]-1-[4-([[2-(2-[2-[(4-[[(1S,2S)-4,6-dichloro-2-(piperazin-1-yl)-2,3-dihydro-1H-inden-1-yl]oxy]benzene)sulfonamido]ethoxy]ethoxy)ethyl]carbamoyl]amino)butyl]urea; bis(trifluoroacetic acid)] | B (5-10) | > 200% | 50 to 70% | > 130% | 100 to 130%
Cc1cc(S(=O)(=O)NCCOCCOCCNC(=O)NCCCCNC(=O)NCCOCCOCCNS(=O)(=O)c2ccc(O[C@H]3c4cc(Cl)cc(Cl)c4C[C@@H]3N3CCNCC3)c(C)c2)ccc1O[C@H]1c2cc(Cl)cc(Cl)c2C[C@@H]1N1CCNCC1 [Example 32, 3-[2-(2-[2-[(4-[[(1S,2S)-4,6-Dichloro-2-(piperazin-1-yl)-2,3-dihydro-1H-inden-1-yl]oxy]-3-methylbenzene)sulfonamido]ethoxy]ethoxy)ethyl]-1-[4-([[2-(2-[2-[(4-[[(1S,2S)-4,6-dichloro-2-(piperazin-1-yl)-2,3-dihydro-1H-inden-1-yl]oxy]-3-methylbenzene)sulfonamido]ethoxy]ethoxy)ethyl]carbamoyl]amino)butyl]urea; bis(trifluoroacetic acid)] | A (<5) | 150 to 200% | 50 to 70% | > 130% | 100 to 130%
O=C(NCCCCNC(=O)NCCOCCOCCNS(=O)(=O)c1ccc(O[C@H]2c3cc(Cl)cc(Cl)c3C[C@@H]2N2CCNCC2)c(F)c1)NCCOCCOCCNS(=O)(=O)c1ccc(O[C@H]2c3cc(Cl)cc(Cl)c3C[C@@H]2N2CCNCC2)c(F)c1 [Example 33, 3-[2-(2-[2-[(4-[[(1S,2S)-4,6-Dichloro-2-(piperazin-1-yl)-2,3-dihydro-1H-inden-1-yl]oxy]-3-fluorobenzene)sulfonamido]ethoxy]ethoxy)ethyl]-1-[4-[[(2-(2-[2-[(4-[[(1S,2S)-4,6-dichloro-2-(piperazin-1-yl)-2,3-dihydro-1H-inden-1-y]oxy]-3-fluorobenzene)sulfonamido]ethoxy]ethoxy)ethyl]carbamoyl]amino)butyl]urea; bis(trifluoroacetic acid)] | C (>10) | > 200% | < 50% | > 130% | 100 to 130%
N#Cc1cc(Cl)cc2c1C[C@H](N1CCNCC1)[C@H]2Oc1ccc(S(=O)(=O)NCCOCCOCCNC(=O)NCCCCNC(=O)NCCOCCOCCNS(=O)(=O)c2ccc(O[C@H]3c4cc(Cl)cc(C#N)c4C[C@@H]3N3CCNCC3)cc2)cc1 [Example 41, 3-[2-(2-[2-[(4-[[(1S,2S)-6-Chloro-4-cyano-2-(piperazin-1-yl)-2,3-dihydro-1H-inden-1-yl]oxy]benzene)sulfonamido]ethoxy]ethoxy)ethyl]-1-[4-([[2-(2-[2-[(4-[[(1S,2S)-6-chloro-4-cyano-2-(piperazin-1-yl)-2,3-dihydro-1H-inden-1-yl]oxy]benzene)sulfonamido]ethoxy]ethoxy)ethyl]carbamoyl]amino)butyl]urea; bis(trifluoroacetic acid)] | B (5-10) | > 200% | < 50% | 100 to 130% | 100 to 130%
Cc1cc(S(=O)(=O)NCCOCCOCCNC(=O)NCCCCNC(=O)NCCOCCOCCNS(=O)(=O)c2ccc(O[C@H]3c4cc(Cl)cc(C#N)c4C[C@@H]3N3CCNCC3)c(C)c2)ccc1O[C@H]1c2cc(Cl)cc(C#N)c2C[C@@H]1N1CCNCC1 [Example 42, 3-[2-(2-[2-[(4-[[(1S,2S)-6-Chloro-4-cyano-2-(piperazin-1-yl)-2,3-dihydro-1H-inden-1-yl]oxy]-3-methylbenzene)sulfonamido]ethoxy]ethoxy)ethyl]-1-[4-([[2-(2-[2-[(4-[[(1S,2S)-6-chloro-4-cyano-2-(piperazin-1-yl)-2,3-dihydro-1H-inden-1-yl]oxy]-3-methylbenzene)sulfonamido]ethoxy]ethoxy)ethyl]carbamoyl]amino)butyl]urea; bis(trifluoroacetic acid)] | B (5-10) | 150 to 200% | < 50% | > 130% | 100 to 130%
N#Cc1cc(Cl)cc2c1C[C@H](N1CCNCC1)[C@H]2Oc1ccc(S(=O)(=O)NCCOCCOCCNC(=O)NCCCCNC(=O)NCCOCCOCCNS(=O)(=O)c2ccc(O[C@H]3c4cc(Cl)cc(C#N)c4C[C@@H]3N3CCNCC3)c(F)c2)cc1F [Example 43, 3-[2-(2-[2-[(4-[[(1S,2S)-6-Chloro-4-cyano-2-(piperazin-1-yl)-2,3-dihydro-1H-inden-1-yl]oxy]-3-fluorobenzene)sulfonamido]ethoxy]ethoxy)ethyl]-1-[4-([[2-(2-[2-[(4-[[(1S,2S)-6-chloro-4-cyano-2-(piperazin-1-yl)-2,3-dihydro-1H-inden-1-yl]oxy]-3-fluorobenzene)sulfonamido]ethoxy]ethoxy)ethyl]carbamoyl]amino)butyl]urea; bis(trifluoroacetic acid)] | C (>10) | > 200% | < 50% | 100 to 130% | 100 to 130%
